Test results published in patent US12559529B2, “NPY2 receptor agonists” (Boehringer Ingelheim International GmbH, priority 2019, dated 2026).
pKi: −log10 of the molar value.

biological target: T1, Human Neuropeptide Y2 Receptor (Homo sapiens, UniProt P49146); test: Radioligand binding competition assay (RLB); conditions: Table 3; human 125I-PYY (1-36) 0.02 nM, Y2 receptor membranes; read-out: Ki
T1 construct: purchased CHEMICON HTS066M
T1 sequence (P49146 1-381): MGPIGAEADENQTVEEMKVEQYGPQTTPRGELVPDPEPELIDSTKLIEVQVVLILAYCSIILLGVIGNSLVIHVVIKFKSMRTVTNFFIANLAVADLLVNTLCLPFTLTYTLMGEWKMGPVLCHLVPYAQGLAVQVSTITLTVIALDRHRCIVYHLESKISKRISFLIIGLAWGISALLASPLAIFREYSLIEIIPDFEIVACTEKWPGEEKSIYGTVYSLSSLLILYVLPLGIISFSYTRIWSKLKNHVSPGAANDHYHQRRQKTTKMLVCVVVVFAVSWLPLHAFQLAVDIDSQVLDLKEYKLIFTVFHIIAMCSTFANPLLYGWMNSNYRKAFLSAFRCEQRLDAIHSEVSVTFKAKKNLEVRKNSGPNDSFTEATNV
Outline: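 Membranes (0.5 μg/well) and test peptides, serially diluted from 1 mM DMSO stocks, were incubated 2 hours at room temperature in HEPES buffer pH 7.4 with Mg, Ca and ovalbumin.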

| SMILES | pKi |
| --- | --- |
| CC(C)CC(=O)N[C@@H](C)C(=O)N1CCC[C@H]1C(=O)N[C@@H](C)C(=O)N[C@@H](CCCCNC(=O)COCCOCCNC(=O)COCCOCCNC(=O)CC[C@H](NC(=O)CCCCCCCCCCCCCCCCC(=O)O)C(=O)O)C(=O)N1CCC[C@H]1C(=O)N[C@@H](CCC(=O)O)C(=O)N[C@@H](C)C(=O)N[C@@H](CC(=O)O)C(=O)N[C@@H](C)C(=O)N[C@@H](CO)C(=O)N1CCC[C@H]1C(=O)N[C@@H](CCC(=O)O)C(=O)N[C@@H](CCC(=O)O)C(=O)N[C@@H](CC(C)C)C(=O)N[C@@H](CCC(N)=O)C(=O)N[C@@H](CCCNC(=N)N)C(=O)N[C@@H](Cc1ccc(O)cc1)C(=O)N[C@@H](Cc1ccc(O)cc1)C(=O)N[C@H](C(=O)N[C@@H](CO)C(=O)N[C@@H](CC(C)C)C(=O)N[C@@H](CCCNC(=N)N)C(=O)N[C@@H](Cc1c[nH]cn1)C(=O)N[C@@H](Cc1ccc(O)cc1)C(=O)N[C@@H](Cc1ccc(O)cc1)C(=O)N[C@@H](CC(N)=O)C(=O)N[C@@H](Cc1c[nH]c2ccccc12)C(=O)N[C@@H](CC(C)C)C(=O)N[C@H](C(=O)N[C@@H](CCCNC(=N)N)C(=O)N[C@@H](CCC(N)=O)C(=O)N[C@@H](CCCNC(=N)N)C(=O)N[C@@H](Cc1ccc(O)cc1)C(N)=O)[C@@H](C)O)C(C)C [Compound 121, N{alpha-4}-(3-methylbutanoyl)-N{epsilon-7}-[2-(2-{2-[2-(2-{2-[(4S)-4-carboxy-4-(17-carboxyheptadecanamido)butanamido]ethoxy}ethoxy)acetamido]ethoxy}ethoxy)acetamido]-[4A,6A,7K,9E,10A,18Q,22V,28Y,30W,31L]hPYY (4-36)] | 9.21 |
| CC(C)CC(=O)N[C@@H](C)C(=O)N1CCC[C@H]1C(=O)N[C@@H](CCC(=O)O)C(=O)N[C@@H](CCCCNC(=O)COCCOCCNC(=O)COCCOCCNC(=O)CC[C@H](NC(=O)CCCCCCCCCCCCCCCCC(=O)O)C(=O)O)C(=O)N1CCC[C@H]1C(=O)N[C@@H](CCC(=O)O)C(=O)N[C@@H](CCC(=O)O)C(=O)N[C@@H](CC(=O)O)C(=O)N[C@@H](C)C(=O)N[C@@H](C)C(=O)N1CCC[C@H]1C(=O)N[C@@H](CCC(=O)O)C(=O)N[C@@H](CCC(=O)O)C(=O)N[C@@H](CC(C)C)C(=O)N[C@@H](CCC(N)=O)C(=O)N[C@@H](CCCNC(=N)N)C(=O)N[C@@H](Cc1ccc(O)cc1)C(=O)N[C@@H](Cc1ccc(O)cc1)C(=O)N[C@H](C(=O)N[C@@H](CO)C(=O)N[C@@H](CC(C)C)C(=O)N[C@@H](CCCNC(=N)N)C(=O)N[C@@H](Cc1c[nH]cn1)C(=O)N[C@@H](Cc1ccc(O)cc1)C(=O)N[C@@H](Cc1ccc(O)cc1)C(=O)N[C@@H](CC(N)=O)C(=O)N[C@@H](Cc1c[nH]c2ccccc12)C(=O)N[C@@H](CC(C)C)C(=O)N[C@H](C(=O)N[C@@H](CCCNC(=N)N)C(=O)N[C@@H](CCC(N)=O)C(=O)N[C@@H](CCCNC(=N)N)C(=O)N[C@@H](Cc1ccc(O)cc1)C(N)=O)[C@@H](C)O)C(C)C [Compound 122, N{alpha-4}-(3-methylbutanoyl)-N{epsilon-7}-[2-(2-{2-[2-(2-{2-[(4S)-4-carboxy-4-(17-carboxyheptadecanamido)butanamido]ethoxy}ethoxy)acetamido]ethoxy}ethoxy)acetamido]-[4A,7K,9E,13A,18Q,22V,28Y,30W,31L]hPYY (4-36)] | 8.74 |

The remaining lines, values ahead:

| pKi | SMILES |
| --- | --- |
| 8.93 | CC(C)CC(=O)N[C@@H](C)C(=O)N1CCC[C@H]1C(=O)N[C@@H](C)C(=O)N[C@@H](CCCCNC(=O)COCCOCCNC(=O)COCCOCCNC(=O)CC[C@H](NC(=O)CCCCCCCCCCCCCCCCC(=O)O)C(=O)O)C(=O)N1CCC[C@H]1C(=O)N[C@@H](CCC(=O)O)C(=O)N[C@@H](CCC(=O)O)C(=O)N[C@@H](CC(=O)O)C(=O)N[C@@H](CO)C(=O)N[C@@H](CO)C(=O)N1CCC[C@H]1C(=O)N[C@@H](CCC(=O)O)C(=O)N[C@@H](CCC(=O)O)C(=O)N[C@@H](CC(C)C)C(=O)N[C@@H](CCC(N)=O)C(=O)N[C@@H](CCCNC(=N)N)C(=O)N[C@@H](Cc1ccc(O)cc1)C(=O)N[C@@H](Cc1ccc(O)cc1)C(=O)N[C@H](C(=O)N[C@@H](CO)C(=O)N[C@@H](CC(C)C)C(=O)N[C@@H](CCCNC(=N)N)C(=O)N[C@@H](Cc1c[nH]cn1)C(=O)N[C@@H](Cc1ccc(O)cc1)C(=O)N[C@@H](Cc1ccc(O)cc1)C(=O)N[C@@H](CC(N)=O)C(=O)N[C@@H](Cc1c[nH]c2ccccc12)C(=O)N[C@@H](CC(C)C)C(=O)N[C@H](C(=O)N[C@@H](CCCNC(=N)N)C(=O)N[C@@H](CCC(N)=O)C(=O)N[C@@H](CCCNC(=N)N)C(=O)N[C@@H](Cc1ccc(O)cc1)C(N)=O)[C@@H](C)O)C(C)C [Compound 126, N{alpha-4}-(3-methylbutanoyl)-N{epsilon-7}-[2-(2-{2-[2-(2-{2-[(4S)-4-carboxy-4-(17-carboxyheptadecanamido)butanamido]ethoxy}ethoxy)acetamido]ethoxy}ethoxy)acetamido]-[4A,6A,7K,9E,12S,18Q,22V,28Y,30W,31L]hPYY (4-36)] |
| 7.95 | CC(C)CC(=O)N[C@@H](C)C(=O)N1CCC[C@H]1C(=O)N[C@@H](CCC(=O)O)C(=O)N[C@@H](CCCCNC(=O)COCCOCCNC(=O)COCCOCCNC(=O)CC[C@H](NC(=O)CCCCCCCCCCCCCCCCC(=O)O)C(=O)O)C(=O)N1CCC[C@H]1C(=O)N[C@@H](CCC(=O)O)C(=O)N[C@@H](CCC(=O)O)C(=O)N[C@@H](CC(=O)O)C(=O)N[C@H](C(=O)N[C@@H](CO)C(=O)N[C@@H](C)C(=O)N[C@@H](CCC(=O)O)C(=O)N[C@@H](CCC(=O)O)C(=O)N[C@@H](CC(C)C)C(=O)N[C@@H](CCC(N)=O)C(=O)N[C@@H](CCCNC(=N)N)C(=O)N[C@@H](Cc1ccc(O)cc1)C(=O)N[C@@H](Cc1ccc(O)cc1)C(=O)N[C@H](C(=O)N[C@@H](CO)C(=O)N[C@@H](CC(C)C)C(=O)N[C@@H](CCCNC(=N)N)C(=O)N[C@@H](Cc1c[nH]cn1)C(=O)N[C@@H](Cc1ccc(O)cc1)C(=O)N[C@@H](Cc1ccc(O)cc1)C(=O)N[C@@H](CC(N)=O)C(=O)N[C@@H](Cc1c[nH]c2ccccc12)C(=O)N[C@@H](CC(C)C)C(=O)N[C@H](C(=O)N[C@@H](CCCNC(=N)N)C(=O)N[C@@H](CCC(N)=O)C(=O)N[C@@H](CCCNC(=N)N)C(=O)N[C@@H](Cc1ccc(O)cc1)C(N)=O)[C@@H](C)O)C(C)C)[C@@H](C)O [Compound 130, N{alpha-4}-(3-methylbutanoyl)-N{epsilon-7}-[2-(2-{2-[2-(2-{2-[(4S)-4-carboxy-4-(17-carboxyheptadecanamido)butanamido]ethoxy}ethoxy)acetamido]ethoxy}ethoxy)acetamido]-[4A,7K,9E,12T,14A, 18Q,22V,28Y,30W,31L]hPYY (4-36)] |
| 8.07 | CC(C)CC(=O)N[C@@H](C)C(=O)N1CCC[C@H]1C(=O)N[C@@H](CCC(=O)O)C(=O)N[C@@H](CCCCNC(=O)COCCOCCNC(=O)COCCOCCNC(=O)CC[C@H](NC(=O)CCCCCCCCCCCCCCCCC(=O)O)C(=O)O)C(=O)N[C@@H](C)C(=O)N[C@@H](CCC(=O)O)C(=O)N[C@@H](CCC(=O)O)C(=O)N[C@@H](CC(=O)O)C(=O)N[C@@H](C)C(=O)N[C@@H](CO)C(=O)N1CCC[C@H]1C(=O)N[C@@H](CCC(=O)O)C(=O)N[C@@H](CCC(=O)O)C(=O)N[C@@H](CC(C)C)C(=O)N[C@@H](CCC(N)=O)C(=O)N[C@@H](CCCNC(=N)N)C(=O)N[C@@H](Cc1ccc(O)cc1)C(=O)N[C@@H](Cc1ccc(O)cc1)C(=O)N[C@H](C(=O)N[C@@H](CCC(=O)O)C(=O)N[C@@H](CC(C)C)C(=O)N[C@@H](CCCNC(=N)N)C(=O)N[C@@H](Cc1c[nH]cn1)C(=O)N[C@@H](Cc1ccc(O)cc1)C(=O)N[C@@H](Cc1ccc(O)cc1)C(=O)N[C@@H](CC(N)=O)C(=O)N[C@@H](Cc1c[nH]c2ccccc12)C(=O)N[C@@H](CC(C)C)C(=O)N[C@H](C(=O)N[C@@H](CCCNC(=N)N)C(=O)N[C@@H](CCC(N)=O)C(=O)N[C@@H](CCCNC(=N)N)C(=O)N[C@@H](Cc1ccc(O)cc1)C(N)=O)[C@@H](C)O)C(C)C [Compound 131, N{alpha-4}-(3-methylbutanoyl)-N{epsilon-7}-[2-(2-{2-[2-(2-{2-[(4S)-4-carboxy-4-(17-carboxyheptadecanamido)butanamido]ethoxy}ethoxy)acetamido]ethoxy}ethoxy)acetamido]-[4A,7K,8A,9E,18Q,22V,23E,28Y,30W,31L]hPYY (4-36)] |
| 8.93 | CC[C@H](C)[C@H](NC(=O)[C@H](CCC(=O)O)NC(=O)[C@H](CCC(=O)O)NC(=O)[C@@H]1CCCN1C(=O)[C@H](CO)NC(=O)[C@H](C)NC(=O)[C@H](CC(=O)O)NC(=O)[C@H](CCC(=O)O)NC(=O)[C@H](CCC(=O)O)NC(=O)[C@@H]1CCCN1C(=O)[C@H](CCCCNC(=O)COCCOCCNC(=O)COCCOCCNC(=O)CC[C@H](NC(=O)CCCCCCCCCCCCCCCCC(=O)O)C(=O)O)NC(=O)[C@H](CCC(=O)O)NC(=O)[C@@H]1CCCN1C(=O)[C@H](C)NC(=O)CC(C)C)C(=O)N[C@@H](CCC(N)=O)C(=O)N[C@@H](CCCNC(=N)N)C(=O)N[C@@H](Cc1ccc(O)cc1)C(=O)N[C@@H](Cc1ccc(O)cc1)C(=O)N[C@H](C(=O)N[C@@H](CCC(=O)O)C(=O)N[C@@H](CC(C)C)C(=O)N[C@@H](CCCNC(=N)N)C(=O)N[C@@H](Cc1c[nH]cn1)C(=O)N[C@@H](Cc1ccc(O)cc1)C(=O)N[C@@H](Cc1ccc(O)cc1)C(=O)N[C@@H](CC(N)=O)C(=O)N[C@@H](Cc1c[nH]c2ccccc12)C(=O)N[C@@H](CC(C)C)C(=O)N[C@H](C(=O)N[C@@H](CCCNC(=N)N)C(=O)N[C@@H](CCC(N)=O)C(=O)N[C@@H](CCCNC(=N)N)C(=O)N[C@@H](Cc1ccc(O)cc1)C(N)=O)[C@@H](C)O)[C@@H](C)O [Compound 134, N{alpha-4}-(3-methylbutanoyl)-N{epsilon-7}-[2-(2-{2-[2-(2-{2-[(4S)-4-carboxy-4-(17-carboxyheptadecanamido)butanamido]ethoxy}ethoxy)acetamido]ethoxy}ethoxy)acetamido]-[4A,7K,9E,17I,18Q,22T,23E,28Y,30W,31L]hPYY (4-36)] |
